Assay results from ChEMBL document CHEMBL2040800 (J Med Chem, 2012).
Converted amounts (≈) assume the structure as drawn. The source made the active and inactive calls. No cut-off for these calls is given here.

Columns and labels:
[1] = Intrinsic clearance in human liver microsomes at 1 uM up to 60 mins; assay type: ADME, Microsome; details: read-out: CLH
[2] = Kinetic solubility of the compound in phosphate buffer after 30 mins by nephelometry at pH 6.5; assay type: physicochemical; details: read-out: Kinetic_solubility
[3] = Half life in human liver microsomes at 1 uM; assay type: ADME, Microsome
[4] = Plasma protein binding in human by reverse phase gradient HPLC analysis; assay type: ADME, cell-free; details: read-out: PPB (converted)
[5] = Partition coefficient, log D of the compound at pH 7.4 by phase gradient HPLC analysis; assay type: physicochemical; details: octanol/water
[6] = tested on: Plasmodium falciparum; assay: Antimalarial activity against chloroquine-sensitive Plasmodium falciparum NF54 after 24 hrs by hypoxanthine incorporation assay; assay type: functional, organism-based; details: NF54, 24 h
[7] = tested on: Plasmodium falciparum; assay: Antimalarial activity against chloroquine-resistant Plasmodium falciparum K1 after 24 hrs by hypoxanthine incorporation assay; assay type: functional, organism-based; details: K1, 24 h
[8] = tested on: Plasmodium berghei; assay: Antimalarial activity against Plasmodium berghei ANKA expressing GFP infected in Sprague-Dawley rat assessed as reduction in parasitemia at 50 mg/kg, po administered as 4 doses measured on day 4 post-infection by flow cytometry; assay type: functional; parameters: scale not given: the % may be the effect or the level left
[9] = tested on: Plasmodium berghei; assay: Antimalarial activity against Plasmodium berghei ANKA expressing GFP infected in Sprague-Dawley rat assessed as mean survival days of host at 50 mg/kg, po administered as 4 doses; assay type: functional
[10] = tested on: Plasmodium berghei; assay: Antimalarial activity against Plasmodium berghei ANKA expressing GFP infected in Sprague-Dawley rat assessed as reduction in parasitemia at 100 mg/kg, po administered as single dose measured on day 3 post-infection by flow cytometry; assay type: functional; parameters: scale not given: the % may be the effect or the level left
[11] = tested on: Plasmodium berghei; assay: Antimalarial activity against Plasmodium berghei ANKA expressing GFP infected in Sprague-Dawley rat assessed as mean survival days of host at 100 mg/kg, po administered as single dose; assay type: functional
[12] = tested on: Plasmodium berghei; assay: Antimalarial activity against Plasmodium berghei ANKA expressing GFP infected in Sprague-Dawley rat assessed as reduction in parasitemia at 30 mg/kg, po administered as single dose measured on day 3 post-infection by flow cytometry; assay type: functional; parameters: scale not given: the % may be the effect or the level left
[13] = tested on: Plasmodium berghei; assay: Antimalarial activity against Plasmodium berghei ANKA expressing GFP infected in Sprague-Dawley rat assessed as mean survival days of host at 30 mg/kg, po administered as single dose; assay type: functional
[14] = tested on: Plasmodium berghei; assay: Antimalarial activity against Plasmodium berghei ANKA expressing GFP infected in Sprague-Dawley rat assessed as host survival at 30 mg/kg, po administered as single dose measured 6 days post-infection; assay type: functional, organism-based; parameters: dose 30 mg/kg
[15] = tested on: Plasmodium falciparum; assay: Antimalarial activity against ring stage Plasmodium falciparum 3D7 at 1.82 uM after 72 hrs by DAPI-staining based confocal microscopy; assay type: functional
[16] = tested on: Plasmodium falciparum; assay: Antimalarial activity against ring stage Plasmodium falciparum Dd2 at 1.82 uM after 72 hrs by DAPI-staining based confocal microscopy; assay type: functional
[17] = tested on: Plasmodium berghei; assay: Antimalarial activity against Plasmodium berghei ANKA expressing GFP infected in Sprague-Dawley rat assessed as total cure from parasite at 50 mg/kg, po administered as 4 doses measured on day 30 post-infection by flow cytometry; assay type: functional, organism-based; parameters: dose 50 mg/kg
[18] = tested on: Plasmodium berghei; assay: Antimalarial activity against Plasmodium berghei ANKA expressing GFP infected in Sprague-Dawley rat assessed as reduction in parasitemia at 3 mg/kg, po administered as single dose measured on day 3 post-infection by flow cytometry; assay type: functional; parameters: scale not given: the % may be the effect or the level left
[19] = tested on: Plasmodium berghei; assay: Antimalarial activity against Plasmodium berghei ANKA expressing GFP infected in Sprague-Dawley rat assessed as host survival at 3 mg/kg, po administered as single dose measured 6 days post-infection; assay type: functional, organism-based; parameters: dose 3 mg/kg
[20] = tested on: Plasmodium berghei; assay: Antimalarial activity against Plasmodium berghei ANKA expressing GFP infected in Sprague-Dawley rat assessed as mean survival days of host at 3 mg/kg, po administered as single dose; assay type: functional
[21] = tested on: Plasmodium berghei; assay: Antimalarial activity against Plasmodium berghei ANKA expressing GFP infected in Sprague-Dawley rat assessed as reduction in parasitemia at 10 mg/kg, po administered as single dose measured on day 3 post-infection by flow cytometry; assay type: functional; parameters: scale not given: the % may be the effect or the level left
[22] = tested on: Plasmodium berghei; assay: Antimalarial activity against Plasmodium berghei ANKA expressing GFP infected in Sprague-Dawley rat assessed as mean survival days of host at 10 mg/kg, po administered as single dose; assay type: functional

Structure (SMILES) | microsomal CLint at 1 µM [1] [µL/min/mg] | solubility kinetic at 0.5 h [2] [µg/mL] | half-life at 1 µM [3] [min] | fraction unbound [4] | chromatographic logD [5] | IC50 [6] [nM] | IC50 [7] [nM] | Activity [12] [%] | MSD [13] [days] | other results
CS(=O)(=O)c1ccc(-c2cnc(N)c(-c3ccc(CO)nc3)c2)cc1 | < 7 | 25 (≈ 70.3 µM) | > 250 | 0.541 | 1.2 | 171 | 169 |  |  | 
CS(=O)(=O)c1ccc(-c2cnc(N)c(-c3cccc(OC(F)(F)F)c3)c2)cc1 |  |  |  |  |  | 190 | 180 |  |  | 
CS(=O)(=O)c1ccc(-c2cnc(N)c(-c3ccc(C(N)=O)cc3)c2)cc1 | < 5 | 25 (≈ 68 µM) | > 350 | 0.216 | 1.5 | 30 | 30 | <40 | 3 | Activity [8]: 66%; MSD [9]: 7 days; Activity [10]: 64%; MSD [11]: 7 days; Activity [14]: inactive
CS(=O)(=O)c1ccc(-c2cnc(N)c(-c3ccnc(C(F)(F)F)c3)c2)cc1 |  |  |  |  |  | 181 | 155 |  |  | 
COc1ccc(-c2cnc(N)c(-c3ccc(O)c(OC)c3)c2)cc1 |  |  |  |  |  |  |  |  |  | Activity [15]: 50%; Activity [16]: 50%
Cc1ccc(-c2cc(-c3ccc(S(C)(=O)=O)cc3)cnc2N)cn1 | < 5 | 50 (≈ 147 µM) | > 350 | 0.256 | 1.8 | 28 | 29 | 99.2 | 8 | Activity [8]: 99.8%; MSD [9]: >30 days; Activity [17]: Active; Activity [18]: <40%; Activity [19]: inactive; MSD [20]: 3 days
CS(=O)(=O)c1ccc(-c2cnc(N)c(-c3cnc(N)nc3)c2)cc1 |  |  |  |  |  | 120 | 120 |  |  | 
CS(=O)(=O)c1ccc(-c2cnc(N)c(-c3ccc(C(F)(F)F)cc3Cl)c2)cc1 |  |  |  |  |  | 806 | 818 |  |  | 
CNC(=O)c1ccc(-c2cc(-c3ccc(S(C)(=O)=O)cc3)cnc2N)cc1 | < 5 | 25 (≈ 65.5 µM) | > 350 | 0.182 | 1.7 | 79 | 71 | 77 | 7 | Activity [8]: 99.7%; MSD [9]: 9 days; Activity [10]: 98%; MSD [11]: 6 days
CS(=O)(=O)c1ccc(-c2cnc(N)c(-c3cccc(C(=O)NCCO)c3)c2)cc1 |  |  |  |  |  | 603 | 634 |  |  | 
COc1cc(-c2cc(-c3ccc(S(C)(=O)=O)cc3)cnc2N)ccc1O | 17 | 6.3 (≈ 17 µM) | 103 | 0.172 | 1.9 | 49 | 49 |  |  | Activity [15]: >80%; Activity [16]: >80%
CCN(CC)CCCC(C)Nc1ccnc2cc(Cl)ccc12 (stereo not given) [CHLOROQUINE] |  |  |  |  |  |  |  | 99.7 | 9 | MSD [11]: 12 days; Activity [21]: 99.5%; Activity [18]: 83%; MSD [20]: 7 days; MSD [22]: 7 days
CS(=O)(=O)c1ccc(-c2cnc(N)c(-c3ccc(C#N)cc3)c2)cc1 | < 5 | 1.6 (≈ 4.58 µM) | > 350 |  | 2.4 | 160 | 150 | 99.1 | 10 | Activity [8]: 99.7%; MSD [9]: >30 days; Activity [10]: >99.4%; MSD [11]: 14 days
CN(C)CCNC(=O)c1ccc(-c2cc(-c3cc(F)c(F)c(F)c3)cnc2N)cc1 |  |  |  |  |  |  |  |  |  | Activity [15]: 50%; Activity [16]: 50%
Nc1ncc(-c2ccc(Cl)cc2)cc1-c1cccc(CO)c1 |  |  |  |  |  |  |  |  |  | Activity [15]: 50%; Activity [16]: 50%
CS(=O)(=O)c1ccc(-c2cnc(N)c(-c3cccnc3)c2)cc1 |  |  |  |  |  | 575 | 818 |  |  | 
